Experiments:
[1] = tested on: Mycobacterium smegmatis ATCC 607; assay: Antimicrobial activity, agar plate-cylinder method, bleomycin A2 as standard (1,000 u/mg); assay type: cell-based; conditions: copper-free form; for Antimicrobial potency: bleomycin A2 = 1,000 u/mg; for Antimicrobiral potency: Table 5, relative to bleomycin A2 = 1,000 u/mg
Protocol: Typical examples of the biological activities measured on cleomycins (copper-free form) are illustrated below.
Comparison was made with the relevant antibiotics bleomycins. The relative antimicrobial potency (u/mg) against Mycobacterium smegmatis ATCC 607 was measured by agar plate-cylinder method using bleomycin A2 as a standard (1,000 u/mg).
(Note: The antimicrobial potency was determined by taking bleomycin
A2 as 1,000 μ/mg and using Mycobacterium smegmatis ATCC 607 as a
test bacterium. Herinafter, the same was applied.)

[2] = tested on: Mycobacterium smegmatis ATCC 607; assay: as above; assay type: cell-based; conditions: Examples, Step A; hydrochloride, copper-containing form; bleomycin A2 = 1,000 u/mg
[3] = Solubility (physical and chemical properties, Tables 4-1 and 4-2); conditions: hydrochloride, also soluble in dimethylformamide, dimethylsulfoxide, and methanol
[4] = tested on: HeLa S3 cells; assay: Activity on cultured HeLa S3 cells (growth inhibition); assay type: cell-based
Protocol: Fifty percent inhibitory cocentration (LD50) was determined on a test compound cleomycin (No. 33) and on a reference compound bleomycin A2, from the percent of growth inhibition measured on HeLa S3 cells after the cells had been cultured in the presence of each of the compounds.

[5] = Examples, Step B, hydrochloride

SMILES	Antimicrobial potency [1, 5]	Antimicrobial potency [2]	Antimicrobiral potency [1]	other results
Cc1c(N)nc(C(CC(N)=O)NCC(N)C(N)=O)nc1C(=O)NC(C(=O)NC(C)C(O)C(C)C(=O)NC(C(=O)NCCc1nc(-c2nc(C(=O)NCCCNCCCCN)cs2)cs1)C1(O)CC1)C(OC1OC(CO)C(O)C(O)C1OC1OC(CO)C(O)C(OC(N)=O)C1O)c1cnc[nH]1 (stereo not drawn)	3,575 u/mg	3,520 u/mg		
CCCCNCCCNCCCNC(=O)c1csc(-c2csc(CCNC(=O)C(NC(=O)C(C)C(O)C(C)NC(=O)C(NC(=O)c3nc(C(CC(N)=O)NCC(N)C(N)=O)nc(N)c3C)C(OC3OC(CO)C(O)C(O)C3OC3OC(CO)C(O)C(OC(N)=O)C3O)c3cnc[nH]3)C3(O)CC3)n2)n1 (stereo not drawn)	7,942 u/mg	8,130 u/mg		
CCCCNCCCNCCCNC(=O)c1csc(-c2csc(CCNC(=O)C(NC(=O)C(C)C(O)C(C)NC(=O)C(NC(=O)c3nc(C(CC(N)=O)NCC(N)C(N)=O)nc(N)c3C)C(OC3OC(CO)C(O)C(O)C3OC3OC(CO)C(O)C(OC(N)=O)C3O)c3cnc[nH]3)C3(O)CC3)n2)n1 (stereo not drawn) [compound 11, 3-(3-n-butylaminopropylamino)propylaminocleomycin]			7,942 u/mg	Solubility ([3]; copper-containing form): Soluble in water; Solubility ([3]; copper-free form): Soluble in water
Cc1c(N)nc(C(CC(N)=O)NCC(N)C(N)=O)nc1C(=O)NC(C(=O)NC(C)C(O)C(C)C(=O)NC(C(=O)NCCc1nc(-c2nc(C(=O)NCCCCNC(=N)N)cs2)cs1)C1(O)CC1)C(OC1OC(CO)C(O)C(O)C1OC1OC(CO)C(O)C(OC(N)=O)C1O)c1cnc[nH]1 (stereo not drawn) [4-guanidinobutylaminocleomycin]	3,262 u/mg	3,350 u/mg		
Cc1c(N)nc(C(CC(N)=O)NCC(N)C(N)=O)nc1C(=O)NC(C(=O)NC(C)C(O)C(C)C(=O)NC(C(=O)NCCc1nc(-c2nc(C(=O)NCCCN(C)CCCN)cs2)cs1)C1(O)CC1)C(OC1OC(CO)C(O)C(O)C1OC1OC(CO)C(O)C(OC(N)=O)C1O)c1cnc[nH]1 (stereo not drawn) [Compound No. 20, 3-[N-methyl-N-(3-aminopropyl)]aminopropylaminocleomycin]	2,273 u/mg	2,300 u/mg	2,273 u/mg	
Cc1c(N)nc(C(CC(N)=O)NCC(N)C(N)=O)nc1C(=O)NC(C(=O)NC(C)C(O)C(C)C(=O)NC(C(=O)NCCc1nc(-c2nc(C(=O)NCCC[S+](C)C)cs2)cs1)C1(O)CC1)C(OC1OC(CO)C(O)C(O)C1OC1OC(CO)C(O)C(OC(N)=O)C1O)c1cnc[nH]1 (stereo not drawn) [compound 1, 3-s,s-dimethylmercaptopropylaminocleomycin]	1,320 u/mg	1,360 u/mg	1,320 u/mg	Solubility ([3]; copper-containing form): Soluble in water; Solubility ([3]; copper-free form): Soluble in water
Cc1c(N)nc(C(CC(N)=O)NCC(N)C(N)=O)nc1C(=O)NC(C(=O)NC(C)C(O)C(C)C(=O)NC(C(=O)NCCc1nc(-c2nc(C(=O)NCCCCNC(=N)N)cs2)cs1)C1(O)CC1)C(OC1OC(CO)C(O)C(O)C1OC1OC(CO)C(O)C(OC(N)=O)C1O)c1cnc[nH]1 (stereo not drawn) [Compound No. 2, 4-guanidinobutylaminocleomycin]			3,262 u/mg	Solubility ([3]; copper-containing form): Soluble in water; Solubility ([3]; copper-free form): Soluble in water
Cc1c(N)nc(C(CC(N)=O)NCC(N)C(N)=O)nc1C(=O)NC(C(=O)NC(C)C(O)C(C)C(=O)NC(C(=O)NCCc1nc(-c2nc(C(=O)NCCCNC(C)c3ccccc3)cs2)cs1)C1(O)CC1)C(OC1OC(CO)C(O)C(O)C1OC1OC(CO)C(O)C(OC(N)=O)C1O)c1cnc[nH]1 (stereo not drawn) [Compound No. 33, 3-[(s)-1'-phenylethylamino]propylaminocleomycin]		11,300 u/mg	10,949 u/mg	Antimicrobial potency ([1]; Example 1, Step B, sulfate): 10,949 u/mg; anti-HeLa action compared with bleomycin A2 (in words) ([4]; copper-free hydrochloride): activity nearly equal to that of bleomycin A2
Cc1c(N)nc(C(CC(N)=O)NCC(N)C(N)=O)nc1C(=O)NC(C(=O)NC(C)C(O)C(C)C(=O)NC(C(=O)NCCc1nc(-c2nc(C(=O)NCCC[S+](C)C)cs2)cs1)C(C)O)C(OC1OC(CO)C(O)C(O)C1OC1OC(CO)C(O)C(OC(N)=O)C1O)c1cnc[nH]1 (stereo not drawn) [Bleomycin A2, reference compound]				IC50 ([4]; Homo sapiens, HeLa S3, read-out: LD50 (fifty percent inhibitory concentration, growth inhibition)): 0.73 µg/mL
Cc1c(N)nc(C(CC(N)=O)NCC(N)C(N)=O)nc1C(=O)NC(C(=O)NC(C)C(O)C(C)C(=O)NC(C(=O)NCCc1nc(-c2nc(C(=O)NCCN)cs2)cs1)C1(O)CC1)C(OC1OC(CO)C(O)C(O)C1OC1OC(CO)C(O)C(OC(N)=O)C1O)c1cnc[nH]1 (stereo not drawn) [Compound No. 3, 2-aminoethylaminocleomycin]			2,760 u/mg	
Cc1c(N)nc(C(CC(N)=O)NCC(N)C(N)=O)nc1C(=O)NC(C(=O)NC(C)C(O)C(C)C(=O)NC(C(=O)NCCc1nc(-c2nc(C(=O)NCCCNC(C)CCN)cs2)cs1)C1(O)CC1)C(OC1OC(CO)C(O)C(O)C1OC1OC(CO)C(O)C(OC(N)=O)C1O)c1cnc[nH]1 (stereo not drawn) [compound 21, 3-(3-amino-1-methylpropylamino)propylaminocleomycin]			2,620 u/mg	
COCCCNCCCNC(=O)c1csc(-c2csc(CCNC(=O)C(NC(=O)C(C)C(O)C(C)NC(=O)C(NC(=O)c3nc(C(CC(N)=O)NCC(N)C(N)=O)nc(N)c3C)C(OC3OC(CO)C(O)C(O)C3OC3OC(CO)C(O)C(OC(N)=O)C3O)c3cnc[nH]3)C3(O)CC3)n2)n1 (stereo not drawn) [compound 31, 3-(3-methoxypropylamino)propylaminocleomycin]			1,869 u/mg	
Cc1c(N)nc(C(CC(N)=O)NCC(N)C(N)=O)nc1C(=O)NC(C(=O)NC(C)C(O)C(C)C(=O)NC(C(=O)NCCc1nc(-c2nc(C(=O)NCCCNCCCNC3CCCCC3)cs2)cs1)C1(O)CC1)C(OC1OC(CO)C(O)C(O)C1OC1OC(CO)C(O)C(OC(N)=O)C1O)c1cnc[nH]1 (stereo not drawn) [compound 37, 3-(3-cyclohexylaminopropylamino)propylaminocleomycin]			14,784 u/mg	
Cc1c(N)nc(C(CC(N)=O)NCC(N)C(N)=O)nc1C(=O)NC(C(=O)NC(C)C(O)C(C)C(=O)NC(C(=O)NCCc1nc(-c2nc(C(=O)NCCCNCCc3ccccn3)cs2)cs1)C1(O)CC1)C(OC1OC(CO)C(O)C(O)C1OC1OC(CO)C(O)C(OC(N)=O)C1O)c1cnc[nH]1 (stereo not drawn) [compound 41, 3-[2-(2-pyridyl)ethylamino]propylaminocleomycin]			6,068 u/mg	
